In patent publication US5624923A, “Tricyclic diazepine vasopressin antagonists and oxytocin antagonists” (priority 1995, dated 1997):

Tests used:
[1] = target: T1, Rat Kidney Medullary V2 Receptors (Rattus norvegicus, UniProt Q00788); assay: Binding Assay to Rat Kidney Medullary V2 Receptors; settings: rat kidney medulla membranes; read-out: V2 IC50
T1 construct: Medullary tissues from rat kidneys are dissected out; from tissue; host or cells: rat kidney medulla membranes
Procedure, shortened: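 Membranes were prepared from rat kidney medulla and stored in 50.0 mM Tris-HCl pH 7.4 with 0.2% BSA and 0.1 mM PMSF. Radioligand competition ran 120 min at bench temperature, with 1.0 μM unlabeled ligand defining nonspecific binding. Compounds were added in 50% DMSO; filtration, tritium scintillation counting, IC50 from competition analysis.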

Vasopressin V1 = Vasopressin V1 Antagonist Activity in Conscious Rats (vasopressin vasopressor response); assay type: in vivo, rat; parameters: Average Change: unit not given here; settings: 10 mg/kg i.v., SHR
Procedure, shortened: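 Conscious rats are restrained supine, and under local 2% procaine a PE 10/20 cannula is passed through the ventral caudal tail artery into the lower abdominal aorta. The caudal vein is cannulated for intravenous dosing. Blood pressure is recorded with a Statham P23Db transducer, and vasopressin injections are repeated after compound dosing. Percent antagonism is calculated against the pre-drug vasopressor response taken as 100%.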

Rat Hepatic V1 Receptors = target: T2, Rat Hepatic V1 Receptors (Rattus norvegicus, UniProt P30560); assay: Binding Assay to Rat Hepatic V1 Receptors; settings: rat liver membranes; read-out: V1 IC50
T2 construct: Rat liver plasma membranes expressing the vasopressin V1 receptor subtypes; from tissue; host or cells: rat liver plasma membranes
T2 sequence (P30560 whole entry): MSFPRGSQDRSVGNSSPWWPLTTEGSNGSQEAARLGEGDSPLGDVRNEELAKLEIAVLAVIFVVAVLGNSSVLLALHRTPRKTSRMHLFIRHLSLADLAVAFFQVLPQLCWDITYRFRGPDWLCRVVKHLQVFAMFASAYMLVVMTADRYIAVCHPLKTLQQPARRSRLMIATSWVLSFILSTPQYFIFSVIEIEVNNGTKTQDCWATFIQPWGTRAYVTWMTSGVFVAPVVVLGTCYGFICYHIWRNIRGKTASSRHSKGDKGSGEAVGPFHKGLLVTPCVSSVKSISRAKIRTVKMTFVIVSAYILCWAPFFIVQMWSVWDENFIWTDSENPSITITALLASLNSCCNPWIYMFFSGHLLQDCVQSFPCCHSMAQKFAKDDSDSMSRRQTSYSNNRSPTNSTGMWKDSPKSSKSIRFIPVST

T1 sequence (Q00788 whole entry): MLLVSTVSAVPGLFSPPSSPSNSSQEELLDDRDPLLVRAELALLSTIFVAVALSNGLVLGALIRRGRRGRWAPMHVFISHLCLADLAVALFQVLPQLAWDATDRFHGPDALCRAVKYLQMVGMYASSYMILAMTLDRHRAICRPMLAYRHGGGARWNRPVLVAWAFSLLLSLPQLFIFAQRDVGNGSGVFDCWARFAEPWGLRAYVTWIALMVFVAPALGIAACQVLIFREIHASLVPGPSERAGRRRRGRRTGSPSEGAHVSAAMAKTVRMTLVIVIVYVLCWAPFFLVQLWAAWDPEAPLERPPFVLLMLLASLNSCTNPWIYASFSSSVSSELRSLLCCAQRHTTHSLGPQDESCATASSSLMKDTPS

Structure (SMILES) | IC50 [1] [nM] | % Inhibition (Vasopressin V1; VAS 0.01 i.u./kg, 30 min) [%] | Average Change (Vasopressin V1; VAS 0.01 i.u./kg, 30 min) | % Inhibition (Vasopressin V1; VAS 0.01 i.u./kg, 60 min) [%] | Average Change (Vasopressin V1; VAS 0.01 i.u./kg, 60 min) | % Inhibition (Vasopressin V1; VAS 0.01 i.u./kg, 90 min) [%] | Average Change (Vasopressin V1; VAS 0.01 i.u./kg, 90 min) | % Inhibition (Vasopressin V1; VAS 0.01 i.u./kg, 120 min) [%] | Average Change (Vasopressin V1; VAS 0.01 i.u./kg, 120 min) | % Inhibition (Vasopressin V1; VAS 0.01 i.u./kg, 180 min) [%] | Average Change (Vasopressin V1; VAS 0.01 i.u./kg, 180 min) | % Inhibition (Vasopressin V1; VAS 0.01 i.u./kg, 240 min) [%] | Average Change (Vasopressin V1; VAS 0.01 i.u./kg, 240 min) | % Inhibition (Vasopressin V1; VAS 0.01 i.u./kg, 300 min) [%] | Average Change (Vasopressin V1; VAS 0.01 i.u./kg, 300 min) | % Inhibition (Vasopressin V1; VAS 0.02 i.u./kg, 30 min) [%] | Average Change (Vasopressin V1; VAS 0.02 i.u./kg, 30 min) | % Inhibition (Vasopressin V1; VAS 0.02 i.u./kg, 60 min) [%] | Average Change (Vasopressin V1; VAS 0.02 i.u./kg, 60 min) | % Inhibition (Vasopressin V1; VAS 0.02 i.u./kg, 90 min) [%] | further results
CSc1ccccc1C(=O)Nc1ccc(C(=O)N2Cc3cccn3Cc3ccccc32)cc1 [Example 85, N-[4-(5H-Pyrrolo[2,1-c][1,4]benzodiazepin-10(11H)-ylcarbonyl)phenyl]-2-(methylthio)benzamide] | 13 | 83 | 4.5 | 74 | 7 | 64 | 9.5 | 66 | 9 | 42 | 15.5 | 55 | 12 | 5 | 12 | 75 | 9 | 73 | 9.5 | 79 | Average Change (Vasopressin V1; VAS 0.02 i.u./kg, 90 min): 7.5; % Inhibition (Vasopressin V1; VAS 0.02 i.u./kg, 120 min): 82%; Average Change (Vasopressin V1; VAS 0.02 i.u./kg, 120 min): 6.5; % Inhibition (Vasopressin V1; VAS 0.02 i.u./kg, 180 min): 45%; Average Change (Vasopressin V1; VAS 0.02 i.u./kg, 180 min): 19.5; % Inhibition (Vasopressin V1; VAS 0.02 i.u./kg, 240 min): 49%; Average Change (Vasopressin V1; VAS 0.02 i.u./kg, 240 min): 18; % Inhibition (Vasopressin V1; VAS 0.02 i.u./kg, 300 min): 49%; Average Change (Vasopressin V1; VAS 0.02 i.u./kg, 300 min): 18; IC50 (Rat Hepatic V1 Receptors): 9 nM
Cc1ccccc1CC(=O)Nc1ccc(C(=O)N2Cc3cccn3Cc3ccccc32)cc1 [Example 93, N-[4(5H-Pyrrolo[2,1-c][1,4]benzodiazepin-10(11H)-ylcarbonyl)phenyl]-2-methylbenzeneacetamide] | 0.7 | 96 | 2 | 94 | 3 | 90 | 5 | 88 | 6 | 73 | 13.5 | 74 | 13 | 76 | 12 | 94 | 4.5 | 92 | 5.5 | 90 | Average Change (Vasopressin V1; VAS 0.02 i.u./kg, 90 min): 7; % Inhibition (Vasopressin V1; VAS 0.02 i.u./kg, 120 min): 90%; Average Change (Vasopressin V1; VAS 0.02 i.u./kg, 120 min): 7; % Inhibition (Vasopressin V1; VAS 0.02 i.u./kg, 180 min): 78%; Average Change (Vasopressin V1; VAS 0.02 i.u./kg, 180 min): 15.5; % Inhibition (Vasopressin V1; VAS 0.02 i.u./kg, 240 min): 76%; Average Change (Vasopressin V1; VAS 0.02 i.u./kg, 240 min): 17; % Inhibition (Vasopressin V1; VAS 0.02 i.u./kg, 300 min): 74%; Average Change (Vasopressin V1; VAS 0.02 i.u./kg, 300 min): 18.5; IC50 (Rat Hepatic V1 Receptors): 0.9 nM
